These results are taken from patent publication EP2226323A1, “New tetrahydropyrazolo[3,4-c]isoquinolin-5-amine derivatives” (Almirall, S.A., priority 2009, dated 2010).

For this test, the target named is recombinant PDE4 enzyme. Description: PDE4 assay: [3H] cAMP Scintillation Proximity Assay (SPA) of phosphodiesterase activity. The format is biochemical. The following applies: yeast extract of recombinant PDE4 enzyme; 30 nM [3H] cAMP; 1 hr at room temperature; pH 7.5. As to the method:
Measurement of Phosphodiesterase Activity was done using a [3H] cAMP Scintillation Proximity Assay (SPA) (GE Healthcare). Compounds to be tested were dissolved in DMSO at a stock concentration of 1 mM and serial dilutions were prepared in 50% DMSO to determine IC50s. The reactions were conducted in 96-well plates (Corning, Ref.3604) at room temperature, in 0.1 ml of reaction buffer containing (final concentrations): 50 mM Tris-HCl, pH 7.5, 8.3 mM MgCl2, 1.7 mM EGTA, 30 nM [3H] cAMP (approximately 150000 dpm/well) with or without the inhibitors. The reaction was initiated by adding yeast extract of recombinant PDE4 enzyme. Plates were shaken for 1 hr at room temperature and the incubation was terminated by adding 50 µl (0.5 mg /well) of SPA yttrium silicate beads (RPNQ 0150; GE Healthcare) in the presence of zinc sulfate. Plates were stored overnight in the dark and read on a TRILUX microtiter plate reader (Perkin Elmer).
In the case of “Methyl 3-((5-(3,5-dichloropyridin-4-ylamino)-1-hydroxy-8,8-dimethyl-6,7,8,9-tetrahydro-3H-pyrazolo[3,4-c]isoquinolin-3-yl)methyl)benzoate [Example 6]”, the IC50 came out at 2 nM.
For the compound `CC1(C)CCc2c(Nc3c(Cl)cncc3Cl)nc3c(c(O)nn3Cc3ccc(C(=O)O)cc3)c2C1` [Example 12, 4-((5-(3,5-Dichloropyridin-4-ylamino)-1-hydroxy-8,8-dimethyl-6,7,8,9-tetrahydro-3H-pyrazolo[3,4-c]isoquinolin-3-yl)methyl)benzoic acid], the IC50 worked out at 2.4 nM.
For the compound `CC1(C)CCc2c(Nc3c(Cl)cncc3Cl)nc3[nH]nc(O)c3c2C1` [Example 1, 5-(3,5-Dichloropyridin-4-ylamino)-8,8-dimethyl-6,7,8,9-tetrahydro-3H-pyrazolo[3,4-c]isoquinolin-1-ol], the IC50 worked out at 3.9 nM.
Take `CC1(C)CCc2c(Nc3c(Cl)cncc3Cl)nc3c(c(O)nn3CCCc3cccc(C(N)=O)c3)c2C1` [Example 17, 3-(3-(5-(3,5-Dichloropyridin-4-ylamino)-1-hydroxy-8,8-dimethyl-6,7,8,9-tetrahydro-3H-pyrazolo[3,4-c]isoquinolin-3-yl)propyl)benzamide]: the IC50 came out at 2.1 nM.
As for `CN(C)C(=O)c1cccc(S(=O)(=O)n2nc(O)c3c4c(c(Nc5c(Cl)cncc5Cl)nc32)CCC(C)(C)C4)c1` [Example 3, 3-(5-(3,5-Dichloropyridin-4-ylamino)-1-hydroxy-8,8-dimethyl-6,7,8,9-tetrahydro-3H-pyrazolo[3,4-c]isoquinolin-3-ylsulfonyl)-N, N-dimethylbenzamide], the IC50 was determined as 16.8 nM.
Consider `CC1(C)CCc2c(Nc3c(Cl)cncc3Cl)nc3c(c(O)nn3CCCN3CCOCC3)c2C1` [Example 15, 5-(3,5-Dichloropyridin-4-ylamino)-8,8-dimethyl-3-(3-morpholinopropyl)-6,7,8,9-tetrahydro-3H-pyrazolo[3,4-c]isoquinolin-1-ol], for which the IC50 came out at 6.14 nM.
With `CC1(C)CCc2c(Nc3c(Cl)cncc3Cl)nc3c(c(O)nn3Cc3cccnc3)c2C1` [Example 8, 5-(3,5-Dichloropyridin-4-ylamino)-8,8-dimethyl-3-(pyridin-3-ylmethyl)-6,7,8,9-tetrahydro-3H-pyrazolo[3,4-c]isoquinolin-1-ol], the IC50 turned out to be 7.4 nM.
For `COc1cccc(Cn2nc(O)c3c4c(c(Nc5c(Cl)cncc5Cl)nc32)CCC(C)(C)C4)c1` [Example 4, 5-(3,5-Dichloropyridin-4-ylamino)-3-(3-methoxybenzyl)-8,8-dimethyl-6,7,8,9-tetrahydro-3H-pyrazolo[3,4-c]isoquinolin-1-ol], the IC50 was found to be 11 nM.
With `CC1(C)CCc2c(Nc3c(Cl)cncc3Cl)nc3c(c(O)nn3Cc3cccc(C(N)=O)c3)c2C1` [Example 10, 3-((5-(3,5-Dichloropyridin-4-ylamino)-1-hydroxy-8,8-dimethyl-6,7,8,9-tetrahydro-3H-pyrazolo[3,4-c]isoquinolin-3-yl)methyl)benzamide] the figure was 2.3 nM; with `Cn1nc(O)c2c3c(c(Nc4c(Cl)cncc4Cl)nc21)CCC(C)(C)C3` [Example 5, 5-(3,5-Dichloropyridin-4-ylamino)-3,8,8-trimethyl-6,7,8,9-tetrahydro-3H-pyrazolo[3,4-c]isoquinolin-1-ol], 17.1 nM.
Regarding `CC1(C)CCc2c(Nc3c(Cl)cncc3Cl)nc3c(c(O)nn3Cc3cccc(C#N)c3)c2C1` [Example 13, 3-((5-(3,5-Dichloropyridin-4-ylamino)-1-hydroxy-8,8-dimethyl-6,7,8,9-tetrahydro-3H-pyrazolo[3,4-c]isoquinolin-3-yl)methyl)benzonitrile], the IC50 worked out at 2.35 nM.
For `CC1(C)CCc2c(Nc3c(Cl)cncc3Cl)nc3c(c(O)nn3Cc3cccc(C(=O)O)c3)c2C1` [Example 7, 3-((5-(3,5-Dichloropyridin-4-ylamino)-1-hydroxy-8,8-dimethyl-6,7,8,9-tetrahydro-3H-pyrazolo[3,4-c]isoquinolin-3-yl)methyl)benzoic acid], the IC50 amounted to 3.1 nM.
Regarding `CC1(C)CCc2c(Nc3c(Cl)cncc3Cl)nc3c(c(O)nn3CCCc3cccc(C#N)c3)c2C1` [Example 16, 3-(3-(5-(3,5-Dichloropyridin-4-ylamino)-1-hydroxy-8,8-dimethyl-6,7,8,9-tetrahydro-3H-pyrazolo[3,4-c]isoquinolin-3-yl)propyl)benzonitrile], the IC50 was found to be 15.5 nM.
`CC1(C)CCc2c(Nc3c(Cl)cncc3Cl)nc3c(c(O)nn3Cc3ccc(C(N)=O)cc3)c2C1` [Example 14, 4-((5-(3,5-Dichloropyridin-4-ylamino)-1-hydroxy-8,8-dimethyl-6,7,8,9-tetrahydro-3H-pyrazolo[3,4-c]isoquinolin-3-yl)methyl)benzamide]: the IC50 came to 5.17 nM.
On to `CC1(C)CCc2c(Nc3c(Cl)cncc3Cl)nc3[nH]nc(N)c3c2C1` [Example 2, N^5-(3,5-Dichloropyridin-4-yl)-8,8-dimethyl-6,7,8,9-tetrahydro-3H-pyrazolo[3,4-c]isoquinoline-1,5-diamine], for which the IC50 was found to be 62 nM.
With `CC1(C)CCc2c(Nc3c(Cl)cncc3Cl)nc3c(c(O)nn3CC(N)=O)c2C1` [Example 9, 2-(5-(3,5-Dichloropyridin-4-ylamino)-1-hydroxy-8,8-dimethyl-6,7,8,9-tetrahydro-3H-pyrazolo[3,4-c]isoquinolin-3-yl)acetamide] the figure was 18.8 nM.

For orientation: IC50 means the concentration at which inhibition is half-maximal.
